The test system of experiment [1] is KRAS G12D mutant human metastatic pancreatic adenocarcinoma cells AsPC-1. Nature of the experiment: 3D cell proliferation inhibition assay, AsPC-1. The class given is cell-based. Particulars: 7 days, CTG. How it is done:
(§1) Inhibition of 3D cell proliferation by the compounds was investigated on KRAS G12C mutant human non-small cell lung cancer cells NCI-H358 (ATCC or Stem Cell Bank, Chinese Academy of Sciences), KRAS G12D mutant human metastatic pancreatic adenocarcinoma cells AsPC-1 (ATCC), KRAS G12V mutant human lung adenocarcinoma cells NCI-H441 (ATCC), and KRAS G13D mutant human colorectal adenocarcinoma epithelial cells DLD-1 (ATCC). The specific procedures were as follows:
(§2) 200 nL of compound solution diluted in a gradient was added to corresponding microwells of a 384-well low-adsorption microwell plate (Corning, 3657) using an Echo sonic pipetting system (Labcyte, Echo 550), so that the final concentration of the test compound in the reaction system was in a range of 20000 nM-0.008 nM. Then 40 μL of cells at a certain density were added to the corresponding microplate. In addition to test wells for the test compounds, both a DMSO control well and a medium control well were set, with the DMSO control well containing DMSO and cells and the medium well containing only medium. After sample loading, the plate cover was applied, and the 384-well low-adsorption microplate was incubated in an incubator at 37° C. with 5% carbon dioxide for 7 days. After 7 days, the microplate was taken out, and 40 μL of CTG reagent (Promega, G9683) was added to each well. The plate was incubated at room temperature for 30 min and read on a microplate reader EnVision using the chemiluminescence program. The inhibition rates of the compounds at each concentration were calculated by the formula for the percentage inhibition of cell proliferation: inhibition rate %=(mean value of DMSO control group−single concentration reading value of compound)/(mean value of DMSO control group−mean value of medium control group)×100, and then nonlinear curve fitting was performed by GraphPad Prism 8 in the logarithmic concentration-inhibition rate to obtain the IC50 values of the compounds.

For experiment [2], the system named is KRAS G13D mutant human colorectal adenocarcinoma epithelial cells DLD-1. Nature of the experiment: 3D cell proliferation inhibition assay, DLD-1. Particulars: 7 days, CTG. Type of experiment: cell-based. The method, then:
as §1, §2

Experiment [3] deals with KRAS G12V mutant human lung adenocarcinoma cells NCI-H441. Nature of the experiment: 3D cell proliferation inhibition assay, NCI-H441. The class given is cell-based. As to conditions: 7 days, CTG. How it is done: as §1, §2
The subject of experiment [4] is KRAS G12C mutant human non-small cell lung cancer cells NCI-H358. Nature of the experiment: 3D cell proliferation inhibition assay, NCI-H358. Type of experiment: cell-based. As to conditions: 7 days, CTG. How it is done:
as §1, §2

For another experiment, the target named is T1, SOS1 protein (Homo sapiens, UniProt Q07889).
T1 sequence (Q07889 1-1333): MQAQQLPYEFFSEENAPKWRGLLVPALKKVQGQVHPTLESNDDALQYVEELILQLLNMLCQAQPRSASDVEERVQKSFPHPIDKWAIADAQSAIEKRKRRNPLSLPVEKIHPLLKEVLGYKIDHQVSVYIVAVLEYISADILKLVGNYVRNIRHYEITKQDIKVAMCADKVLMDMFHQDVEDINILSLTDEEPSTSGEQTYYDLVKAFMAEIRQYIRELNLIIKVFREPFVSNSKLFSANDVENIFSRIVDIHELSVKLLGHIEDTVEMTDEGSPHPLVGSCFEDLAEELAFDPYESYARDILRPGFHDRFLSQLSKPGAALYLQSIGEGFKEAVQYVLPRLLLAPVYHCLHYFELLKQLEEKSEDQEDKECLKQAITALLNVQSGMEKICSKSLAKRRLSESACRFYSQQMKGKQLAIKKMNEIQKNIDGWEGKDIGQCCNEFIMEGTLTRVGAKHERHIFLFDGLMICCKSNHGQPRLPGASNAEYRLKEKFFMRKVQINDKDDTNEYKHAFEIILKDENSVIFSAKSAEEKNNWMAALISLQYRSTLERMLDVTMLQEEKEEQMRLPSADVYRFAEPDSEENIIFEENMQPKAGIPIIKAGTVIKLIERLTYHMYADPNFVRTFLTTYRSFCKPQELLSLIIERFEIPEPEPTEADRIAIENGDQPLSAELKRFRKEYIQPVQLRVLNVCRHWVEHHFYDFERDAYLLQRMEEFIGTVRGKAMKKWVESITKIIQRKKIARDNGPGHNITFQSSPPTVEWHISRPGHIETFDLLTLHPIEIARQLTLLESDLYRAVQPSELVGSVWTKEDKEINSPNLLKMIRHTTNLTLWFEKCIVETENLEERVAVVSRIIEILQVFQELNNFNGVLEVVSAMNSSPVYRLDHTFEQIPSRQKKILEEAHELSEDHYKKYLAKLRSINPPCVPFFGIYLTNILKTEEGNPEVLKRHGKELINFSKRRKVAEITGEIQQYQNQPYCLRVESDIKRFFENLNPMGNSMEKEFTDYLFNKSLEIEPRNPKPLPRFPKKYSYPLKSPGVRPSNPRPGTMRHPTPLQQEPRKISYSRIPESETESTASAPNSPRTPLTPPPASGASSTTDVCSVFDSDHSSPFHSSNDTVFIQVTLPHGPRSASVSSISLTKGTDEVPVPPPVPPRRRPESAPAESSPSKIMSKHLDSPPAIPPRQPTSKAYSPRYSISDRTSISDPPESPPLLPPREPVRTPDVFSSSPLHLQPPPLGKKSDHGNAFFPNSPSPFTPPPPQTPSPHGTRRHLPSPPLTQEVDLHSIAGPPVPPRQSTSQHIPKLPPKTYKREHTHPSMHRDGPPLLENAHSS
Nature of the experiment: SOS1 degradation assay (Western blot), NCI-H358 cells. The class given is cell-based. On the set-up: The degradation of SOS1 by the compounds was investigated on KRAS G12C mutant human non-small cell lung cancer cells NCI-H358; host or cells: NCI-H358 (human cancer cell lines). As to conditions: SOS1 degradation, NCI-H358 cells, 24 h, Western blot; for DC50: read-out: NCI-H358 (G12C) DC50; for Dmax: read-out: NCI-H358 (G12C) Dmax. Put shortly:
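SOS1 degradation was assessed by densitometry of Western blots, relative to untreated controls, after 24 h compound exposure (0.03–3000 nM final, 37 °C, 5% CO2) of cells seeded at 5×10^5/well. Log concentration–response fitting gave DC50 and Dmax.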
(A western blot detects proteins with antibodies after separation by electrophoresis.)

In the next experiment the target is T2, KRAS-G12C/SOS1 (Homo sapiens, UniProt Q07889).
T2 construct: purchased Cisbio 63ADKOOOCB16PEG
T2 sequence (Q07889 1-1333): T1 sequence (Q07889 1-1333)
Nature of the experiment: KRAS-G12C/SOS1 binding assay (HTRF). As to conditions: inhibition of KRAS-G12C/SOS1 binding. Put shortly: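 HTRF competition assay with Tag1-SOS1 and Tag2-KRAS-G12C (10 μM GTP). Compounds at 10000 nM-0.04 nM final (0.5% DMSO), incubated 15 min at 25° C, then anti-tag Tb3+/XL665 antibodies added for 3 h on ice. The 665/620 nm ratio was compared with control and IC50 derived by nonlinear fit.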
(In general: In TR-FRET formats the signal depends on donor and acceptor labels being close together.)

Bounds are passed on as bounds.

`COc1cc2nc(C)nc(N[C@H](C)c3cc(N)cc(C(F)(F)F)c3)c2cc1C1CCC(C(=O)N2CCN(CC3CCC4(CC3)CCN(C(=O)c3ccc(OC)c(N5CCC(=O)NC5=O)c3)CC4)CC2)CC1` (stereo partly drawn) [Example 20, 1-(5-(9-((4-((1R,4R)-4-(4-(((R)-1-(3-amino-5-(trifluoromethyl)phenyl)ethyl)amino)-7-methoxy-2-methylquinazolin-6-yl)cyclohexane-1-carbonyl)piperazin-1-yl)methyl)-3-azaspiro[5.5]undecane-3-carbonyl)-2-methoxyphenyl)dihydropyrimidine-2,4(1H,3H)-dione]: the IC50 in experiment [1] was 50 to 100 nM; in experiment [2], 15 to 30 nM; in experiment [3], ≤ 15 nM; in experiment [4], ≤ 15 nM.

`Cc1nc(N[C@H](C)c2cc(N)cc(C(F)(F)F)c2)c2cc([C@H]3CC[C@H](C(=O)N4CCN(CC5CCC6(CC5)CCN(C(=O)c5ccc(Cl)c(N7CCC(=O)NC7=O)c5)CC6)CC4)CC3)c(C)cc2n1` [Example 72, 1-(5-(9-((4-((1R,4R)-4-(4-(((R)-1-(3-amino-5-(trifluoromethyl)phenyl)ethyl)amino)-2,7-dimethylquinazolin-6-yl)cyclohexane-1-carbonyl)piperazin-1-yl)methyl)-3-azaspiro[5.5]undecane-3-carbonyl)-2-chlorophenyl)dihydropyrimidine-2,4(1H,3H)-dione]: on SOS1 protein, the 50% degradation concentration (DC50) is < 50 nM and the Dmax was 50 to 80%. Also, at KRAS-G12C/SOS1, the concentration for half-maximal inhibition (IC50) was ≤ 15 nM.

On to `[2H]C([2H])(OCC1CCN(C(=O)[C@H]2CC[C@H](c3cc4c(N[C@H](C)c5cc(N)cc(C(F)(F)F)c5)nc(C)nc4cc3OC)CC2)CC1)C1CCN(C(=O)c2ccc(Cl)c(N3CCC(=O)NC3=O)c2)CC1` [Example 75, 1-(5-(4-(((1-((1R,4R)-4-(4-(((R)-1-(3-amino-5-(trifluoromethyl)phenyl)ethyl)amino)-7-methoxy-2-methylquinazolin-6-yl)cyclohexane-1-carbonyl)piperidin-4-yl)methoxy)methyl-d2)piperidine-1-carbonyl)-2-chlorophenyl)dihydropyrimidine-2,4(1H,3H)-dione], for which, on SOS1 protein, the half-maximal degradation concentration (DC50) was < 50 nM and the Dmax lay within 50 to 80%. For the same compound, the IC50 at KRAS-G12C/SOS1 was ≤ 15 nM.

Turning to `COc1cc2nc(C)nc(N[C@H](C)c3cc(-c4c(Cl)cccc4CN(C)C)cs3)c2cc1[C@H]1CC[C@H](C(=O)N2CCC(CCCC3CCN(C(=O)c4ccc(Cl)c(N5CCC(=O)NC5=O)c4)CC3)CC2)CC1` [Example 79, 1-(2-chloro-5-(4-(3-(1-((1R,4R)-4-(4-(((R)-1-(4-(2-chloro-6-((dimethylamino)methyl)phenyl)thien-2-yl)ethyl)amino)-7-methoxy-2-methylquinazolin-6-yl)cyclohexane-1-carbonyl)piperidin-4-yl)propyl)piperidine-1-carbonyl)phenyl)dihydropyrimidine-2,4(1H,3H)-dione], on SOS1 protein, the DC50 was in the range of 50 to 100 nM and the Dmax was 50 to 80%. Also, the IC50 on KRAS-G12C/SOS1 was ≤ 15 nM.

For orientation: IC50 means the concentration needed to halve the response being measured. A low value points to greater potency in that assay. One may read the DC50 as the concentration giving 50% degradation. A word on the Dmax: it is the greatest extent of degradation seen.
